ChEMBL document CHEMBL2346628, “Real-time analysis of membrane permeabilizing effects of oleanane saponins” (Bioorg Med Chem, 2013)
Active and inactive are the calls of the source. No cut-off for these calls is given here.

Experiments:
ECV-304 [1] = assay: Membrane permeabilization effect on human ECV304 cells assessed as normalized cell index at 6 uM measured every 15 secs for 3 hrs by real time impedance-based plate reader analysis relative to control; assay type: functional
[2] = Hemolytic activity against human RBC at 6 uM after 30 mins relative to control; assay type: ADME, cell-based, Erythrocyte; conditions: red blood cells (RBC), read-out: Activity
ECV-304 [3] = assay: Membrane permeabilization effect on human ECV304 cells assessed as normalized cell index at 12 to 24 uM measured every 15 secs for 3 hrs by real time impedance-based plate reader analysis relative to control relative to control; assay type: functional
ECV-304 [4] = assay: Membrane permeabilization effect on human ECV304 cells assessed as increase in propidium iodide uptake at 12 uM after 1 hr by FACS flow cytometric analysis; assay type: functional, cell-based
ECV-304 [5] = assay: Membrane permeabilization effect on human ECV304 cells at 3 uM measured every 15 secs for 3 hrs by real time impedance-based plate reader analysis; assay type: functional, cell-based
[6] = Hemolytic activity against human RBC at 12 uM after 30 mins relative to control; assay type: ADME, cell-based, Erythrocyte; conditions: for hemolysis at 0.5 h, 12 µM: red blood cells (RBC), read-out: Activity
ECV-304 [7] = assay: Membrane permeabilization effect on human ECV304 cells assessed as induction of membrane lysis at 48 uM after 1 hr; assay type: functional, cell-based
ECV-304 [8] = assay: Membrane permeabilization effect on lysosome of human ECV304 cells assessed as induction of membrane lysis up to 6 uM after 1 hr by N-Acetylglucosaminidase release assay; assay type: functional, cell-based
ECV-304 [9] = assay: Membrane permeabilization effect on lysosome of human ECV304 cells assessed as induction of membrane lysis at 24 to 48 uM after 1 hr by N-Acetylglucosaminidase release assay; assay type: functional, cell-based
ECV-304 [10] = assay: Membrane permeabilization effect on human ECV304 cells at 6 uM measured every 15 secs for 3 hrs by real time impedance-based plate reader analysis; assay type: functional, cell-based
[11] = Hemolytic activity against human RBC at 48 uM after 30 mins; assay type: ADME, cell-based; conditions: erythrocyte, 0.5 h
ECV-304 [12] = assay: Membrane permeabilization effect on lysosome of human ECV304 cells assessed as induction of membrane lysis at 48 uM after 1 hr by N-Acetylglucosaminidase release assay; assay type: functional, cell-based
[13] = Hemolytic activity against human RBC up to 12 uM after 30 mins; assay type: ADME, cell-based; conditions: erythrocyte, 0.5 h
ECV-304 [14] = assay: Membrane permeabilization effect on human ECV304 cells at 12 to 24 uM measured every 15 secs for 3 hrs by real time impedance-based plate reader analysis; assay type: functional, cell-based
[15] = Hemolytic activity against human RBC at 24 uM after 30 mins relative to control; assay type: ADME, cell-based, Erythrocyte; conditions: for hemolysis at 0.5 h, 24 µM: red blood cells (RBC), read-out: Activity
ECV-304 [16] = assay: Membrane permeabilization effect on human ECV304 cells assessed as increase in propidium iodide uptake at 24 to 48 uM after 1 hr by FACS flow cytometric analysis; assay type: functional, cell-based
ECV-304 [17] = assay: Cytotoxicity against human ECV304 cells at 24 uM after 3 hrs; assay type: cell-based; conditions: ecv-304, 3 h
ECV-304 [18] = assay: Membrane permeabilization effect on human ECV304 cells assessed as normalized cell index at 24 uM measured every 15 secs for 3 hrs by real time impedance-based plate reader analysis relative to control; assay type: functional
ECV-304 [19] = assay: Membrane permeabilization effect on human ECV304 cells up to 12 uM measured every 15 secs for 3 hrs by real time impedance-based plate reader analysis; assay type: functional, cell-based
ECV-304 [20] = assay: Membrane permeabilization effect on human ECV304 cells assessed as increase in propidium iodide uptake at 24 uM after 1 hr by FACS flow cytometric analysis; assay type: functional, cell-based
ECV-304 [21] = assay: Membrane permeabilization effect on lysosome of human ECV304 cells assessed as induction of membrane lysis at 3 to 48 uM after 1 hr by N-Acetylglucosaminidase release assay; assay type: functional, cell-based
ECV-304 [22] = assay: Membrane permeabilization effect on human ECV304 cells assessed as propidium iodide uptake at 3 to 48 uM after 1 hr by FACS flow cytometric analysis; assay type: functional, cell-based
ECV-304 [23] = assay: Membrane permeabilization on human ECV304 cells at 24 uM measured every 15 secs for 3 hrs by real time impedance-based plate reader analysis; assay type: functional, cell-based
[24] = Hemolytic activity against human RBC at 3 uM after 30 mins relative to control; assay type: ADME, cell-based, Erythrocyte; conditions: red blood cells (RBC), read-out: Activity
ECV-304 [25] = assay: Membrane permeabilization effect on lysosome of human ECV304 cells at 6 to 48 uM after 1 hr by N-Acetylglucosaminidase release assay; assay type: functional, cell-based

SMILES: CC(=O)O[C@H]1[C@H](O[C@@H]2OC[C@@H](O)[C@H](O)[C@H]2O)[C@@H](O)[C@H](O[C@@H]2[C@H](O)[C@@H](O[C@@H]3O[C@@H](C)[C@H](O[C@@H]4OC[C@@H](O)[C@H](O[C@@H]5OC[C@@H](O)[C@H](O)[C@H]5O)[C@H]4O)[C@@H](O)[C@H]3O)[C@H](OC(=O)[C@]34CCC(C)(C)C[C@H]3C3=CC[C@@H]5[C@@]6(C)CC[C@H](O[C@H]7O[C@H](C(=O)O)[C@@H](O)[C@H](O[C@@H]8OC[C@@H](O)[C@H](O)[C@H]8O)[C@H]7O[C@@H]7O[C@H](CO)[C@H](O)[C@H](O)[C@H]7O)[C@@](C)(C=O)[C@@H]6CC[C@@]5(C)[C@]3(C)C[C@H]4O)O[C@@H]2C)O[C@@H]1C
- fold change (FC) (ECV-304 [1]): 0.6
- hemolysis at 0.5 h, 6 µM [2]: 61%
- fold change (FC) (ECV-304 [3]): 0
- Activity (ECV-304 [4]): Active
- Activity (ECV-304 [5]): inactive
- Activity ([6]; erythrocyte, 0.5 h, 12 µM): Toxic
- Activity (ECV-304 [7]): Active
- Activity (ECV-304 [8]): inactive
- Activity (ECV-304 [9]): Active

SMILES: C[C@@H]1O[C@@H](O[C@H]2[C@H](OC(=O)[C@]34CCC(C)(C)C[C@H]3C3=CC[C@@H]5[C@@]6(C)CC[C@H](O[C@H]7O[C@H](C(=O)O)[C@@H](O)[C@H](O[C@@H]8OC[C@@H](O)[C@H](O)[C@H]8O)[C@H]7O[C@@H]7O[C@H](CO)[C@H](O)[C@H](O)[C@H]7O)[C@@](C)(C=O)[C@@H]6CC[C@@]5(C)[C@]3(C)CC4)O[C@H](C)[C@H](O[C@@H]3O[C@H](C)[C@@H](O)[C@H](O)[C@H]3O)[C@@H]2O)[C@H](O)[C@H](O)[C@H]1O[C@@H]1OC[C@@H](O)[C@H](O[C@@H]2OC[C@@H](O)[C@H](O)[C@H]2O)[C@H]1O
- Activity (ECV-304 [10]): Active
- Activity [11]: Toxic
- Activity (ECV-304 [12]): inactive
- Activity [13]: Non-toxic
- Activity (ECV-304 [14]): inactive
- hemolysis at 0.5 h, 24 µM [15]: 30%
- Activity (ECV-304 [8]): inactive
- Activity (ECV-304 [16]): Active

SMILES: CCC(C)C(CC(O)CC(=O)O[C@H]1[C@@H](O)[C@@H](C)O[C@@H](OC(=O)[C@]23CCC(C)(C)C[C@H]2C2=CC[C@@H]4[C@@]5(C)CC[C@H](O[C@H]6O[C@H](C(=O)O)[C@@H](O)[C@H](O[C@@H]7OC[C@@H](O)[C@H](O)[C@H]7O)[C@H]6O[C@@H]6O[C@H](CO)[C@H](O)[C@H](O)[C@H]6O)[C@@](C)(C=O)[C@@H]5CC[C@@]4(C)[C@]2(C)C[C@H]3O)[C@@H]1O[C@@H]1O[C@@H](C)[C@H](O[C@@H]2OC[C@@H](O)[C@H](O[C@@H]3OCC(O)(O)[C@H]3O)[C@H]2O)[C@@H](O[C@@H]2O[C@H](CO)[C@@H](O)[C@H](O)[C@H]2O)[C@H]1O)OC(=O)CC(O)CC(O[C@@H]1O[C@@H](CO)[C@H](O)[C@H]1O[C@@H]1O[C@@H](C)[C@H](O)[C@@H](O)[C@H]1O)C(C)CC (stereo in doubt; form 1) [listing 1 of 2 here]
- hemolysis at 0.5 h, 6 µM [2]: 27%
- Activity (ECV-304 [17]): Toxic
- fold change (FC) (ECV-304 [18]): 0.1
- hemolysis at 0.5 h, 12 µM [6]: 67%
- Activity ([15]; erythrocyte, 0.5 h, 24 µM): Toxic

SMILES: CCC(C)C(CC(O)CC(=O)O[C@H]1[C@@H](O)[C@@H](C)O[C@@H](OC(=O)[C@]23CCC(C)(C)C[C@H]2C2=CC[C@@H]4[C@@]5(C)CC[C@H](O[C@H]6O[C@H](C(=O)O)[C@@H](O)[C@H](O[C@@H]7OC[C@@H](O)[C@H](O)[C@H]7O)[C@H]6O[C@@H]6O[C@H](CO)[C@H](O)[C@H](O)[C@H]6O)[C@@](C)(C=O)[C@@H]5CC[C@@]4(C)[C@]2(C)C[C@H]3O)[C@@H]1O[C@@H]1O[C@@H](C)[C@H](O[C@@H]2OC[C@@H](O)[C@H](O[C@@H]3OCC(O)(O)[C@H]3O)[C@H]2O)[C@@H](O[C@@H]2O[C@H](CO)[C@@H](O)[C@H](O)[C@H]2O)[C@H]1O)OC(=O)CC(O)CC(O[C@@H]1O[C@@H](CO)[C@H](O)[C@H]1O[C@@H]1O[C@@H](C)[C@H](O)[C@@H](O)[C@H]1O)C(C)CC (stereo in doubt; form 1) [listing 2 of 2 here]
- Activity (ECV-304 [7]): Active
- Activity (ECV-304 [19]): inactive
- Activity (ECV-304 [8]): inactive
- Activity (ECV-304 [20]): Active

SMILES: CCC(C)C(CC(O)CC(=O)O[C@H]1[C@@H](O)[C@@H](C)O[C@@H](OC(=O)[C@]23CCC(C)(C)C[C@H]2C2=CC[C@@H]4[C@@]5(C)CC[C@H](O[C@H]6O[C@H](C(=O)O)[C@@H](O)[C@H](O[C@@H]7OC[C@@H](O)[C@H](O)[C@H]7O)[C@H]6O[C@@H]6O[C@H](CO)[C@H](O)[C@H](O)[C@H]6O)[C@@](C)(C=O)[C@@H]5CC[C@@]4(C)[C@]2(C)C[C@H]3O)[C@@H]1O[C@@H]1O[C@@H](C)[C@H](O[C@@H]2OC[C@@H](O)[C@H](O[C@@H]3OCC(O)(O)[C@H]3O)[C@H]2O)[C@@H](O[C@@H]2O[C@H](CO)[C@@H](O)[C@H](O)[C@H]2O)[C@H]1O)OC(=O)CC(O)CC(O[C@@H]1O[C@@H](CO)[C@H](O)[C@H]1O[C@@H]1O[C@@H](C)[C@H](O)[C@@H](O)[C@H]1O)C(C)CC (stereo in doubt; form 2) [listing 1 of 2 here]
- Activity [11]: Toxic
- Activity [13]: Non-toxic
- hemolysis at 0.5 h, 24 µM [15]: 61%

SMILES: CCC(C)C(CC(O)CC(=O)O[C@H]1[C@@H](O)[C@@H](C)O[C@@H](OC(=O)[C@]23CCC(C)(C)C[C@H]2C2=CC[C@@H]4[C@@]5(C)CC[C@H](O[C@H]6O[C@H](C(=O)O)[C@@H](O)[C@H](O[C@@H]7OC[C@@H](O)[C@H](O)[C@H]7O)[C@H]6O[C@@H]6O[C@H](CO)[C@H](O)[C@H](O)[C@H]6O)[C@@](C)(C=O)[C@@H]5CC[C@@]4(C)[C@]2(C)C[C@H]3O)[C@@H]1O[C@@H]1O[C@@H](C)[C@H](O[C@@H]2OC[C@@H](O)[C@H](O[C@@H]3OCC(O)(O)[C@H]3O)[C@H]2O)[C@@H](O[C@@H]2O[C@H](CO)[C@@H](O)[C@H](O)[C@H]2O)[C@H]1O)OC(=O)CC(O)CC(O[C@@H]1O[C@@H](CO)[C@H](O)[C@H]1O[C@@H]1O[C@@H](C)[C@H](O)[C@@H](O)[C@H]1O)C(C)CC (stereo in doubt; form 2) [listing 2 of 2 here]
- Activity (ECV-304 [21]): inactive
- Activity (ECV-304 [22]): inactive
- Activity (ECV-304 [23]): inactive
- Activity (ECV-304 [8]): inactive

SMILES: C[C@@H]1CC[C@@]2(OC1)O[C@H]1[C@@H](O)[C@H]3[C@@H]4CC[C@H]5C[C@@H](O[C@@H]6O[C@H](CO)[C@H](O[C@@H]7O[C@H](CO)C(O)[C@H](O[C@@H]8OC[C@@H](O)[C@H](O)[C@H]8O)[C@H]7O[C@@H]7O[C@H](CO)[C@H](O)[C@H](O[C@@H]8O[C@H](CO)[C@@H](O)[C@H](O)[C@H]8O)[C@H]7O)[C@H](O)[C@H]6O)[C@H](O)C[C@]5(C)[C@H]4CC[C@]3(C)[C@H]1[C@@H]2C (stereo partly specified) [DIGITONIN]
- hemolysis at 0.5 h, 3 µM [24]: 22%
- hemolysis at 0.5 h, 6 µM [2]: 68%
- Activity (ECV-304 [5]): Active
- hemolysis at 0.5 h, 12 µM [6]: > 80%
- Activity (ECV-304 [7]): Active
- Activity (ECV-304 [25]): Active
- Activity (ECV-304 [8]): inactive
- Activity (ECV-304 [20]): Active
